Data: patent US9708638B1, “Protease assay method using site-specific fluorescence dye labeled protein as substrate” (EZBiolab, priority 2014, dated 2017)
Each block holds one compound with its values, some of them ahead of it.

What was measured:
Assay type in all cases: biochemical
ADAM 17 [1] = assay: Fluorescence polarization assay of cleavage of N-terminal FITC labeled pro-TNF-α by Adam 17; settings: inhibitor at final concentration 10 uM; FIG. 3 Trace B
Experimental: (§1) Cleavage of N-terminal FITC labeled pro-TNF-α was performed by a fluorescence polarization assay. The assay was performed with a SpectraMax fluorescence plate reader in 96-well format. In a typical assay, 1 μM substrate protein was preincubated at 37° C. for 20 minutes. The reaction was initiated by addition of Adam 17 to the substrate solution. The final concentration of Adam 17 was 48 nM. The total reaction volume was […]. The reaction buffer was 50 mM Tris-HCl, pH 7.5, 2.5 μM ZnCl2, 0.005% Brij-35. In inhibition assays, the inhibitor was preincubated with its target protein for 30 minutes before reaction was initiated.
(§2) The concentration of product was calculated according to equation (1): [P]=(F[S]−Fs[S])/(Fp−Fs); where [P] is the concentration of product, F is the experimental recorded fluorescence polarization value, [S] is the total concentration of substrate and Fs and Fp are fluorescence polarization values of substrate and product, respectively. Fp is determined from a synthetic peptide with an identical sequence to the N-terminal fragment of the cleavage products.
(§3) To initiate the cleavage reaction, 1 ul ADAM 17 (0.1 mg/ml) stock solution may be added to 100 ul FITC-[pro-TNF-α] in 20 mM Tris-HCL, PH 8.5. The final concentration of FITC-[pro-TNF-α] is about 1 uM.

ADAM 17 [2] = biological target: ADAM 17 (Homo sapiens, UniProt P01375); assay: as above
Experimental: as §1, §2, §3

ADAM 17 [3] = biological target: ADAM 17 (Homo sapiens, UniProt P78536); assay: Cleavage of peptide substrate by Adam 17 (HPLC); settings: HPLC results
Experimental: Cleavage of peptide substrates: Two peptide substrates were used in this study. PS1 is Mca-PLAQAV-Dpa-RSSSR-NH2 (22), a fluorescence resonance energy transfer based substrate, the activity was measured by fluorescence intensity change upon cleavage. PS2 may be the non-fluorescence version of PS1. For PS1, in a typical assay, 10 μM substrate was preincubated at 37° C. for 20 minutes. The reaction was initiated by addition of Adam 17 to the substrate solution at the final concentration of 16 nM. The total reaction volume may be 100 μl. The reaction buffer may be 50 mM Tris-HCl, pH 9.0, 2.5 μM ZnCl2, 0.005% Brij-35. In inhibition assays, inhibitor was preincubated with peptide substrate for 30 minutes. For PS2, reaction conditions were identical to PS1.
Referring to FIGS. 13 and 14, TNF-α Inhibitor is a small molecule that blocks interaction of TNF-α with its receptor by binding to TNF-α. This compound may affect the activity of Adam 17 to convert pro-TNF-α to TNF-α. Referring to FIG. 13, it is shown that at a concentration of about 200 μM, TNF-α inhibitor reduces the reaction rate by about 40%, which is validated by the electrophoresis assay results shown in FIG. 14. […] Based on the established direct binding between the compound and TNFα, it is believed that the inhibition effect is caused by the interaction of the compound to pro-TNFα.

BACE = biological target: T1, BACE (Homo sapiens, UniProt P56817); assay: Fluorescence polarization assay of cleavage of APP365-699-[5-TAMRA] by BACE; settings: inhibitor included in the cleavage reaction; FIG. 10 Trace B
T1 construct: made in house; host or cells: E. coli
Excerpt: Referring to FIGS. 9-11, in this example Beta-secretase (BACE) is one of the two proteases that cleave amyloid precursor protein (APP) to produce amyloid peptide 1-42. Human APP is a 733 residue protein. Full length of APP is consisted of several domains. BACE cleaves APP between residue 671 and 672. In this example, a fluorescence dye is specifically conjugated to the C-terminal end of APP365-699 that contains two independent folded domains. Gene encoding APP365-699 is fused to the N-terminal end of intein. After MESNA mediated self cleavage between APP365-699 and intein, a thioester group, is added to the C-terminal end of APP365-699. A fluorescence dye conjugated small peptide, CysGlySerLys-[5-TAMRA], is then ligated to the C-terminal end of APP365-699 to produce fluorescent dye labeled APP365-699:
As a result, fluorescence polarization of 5-TAMRA reduces. […] It proves that APP365-699-[5-TAMRA] may be used as a substrate for BACE activity assay by recording the fluorescence polarization. […] Thus, APP365-699-[5-TAMRA] may be used as a substrate for BACE activity assay by recording the fluorescence polarization and the assay may be used to identify its inhibitors.

Renin = biological target: T2, Renin (Homo sapiens, UniProt P00797); assay: Fluorescence polarization assay of cleavage of FITC-angiotensinogen by Renin; settings: inhibitor at final concentration 10 uM
T2 sequence (P00797 67-406): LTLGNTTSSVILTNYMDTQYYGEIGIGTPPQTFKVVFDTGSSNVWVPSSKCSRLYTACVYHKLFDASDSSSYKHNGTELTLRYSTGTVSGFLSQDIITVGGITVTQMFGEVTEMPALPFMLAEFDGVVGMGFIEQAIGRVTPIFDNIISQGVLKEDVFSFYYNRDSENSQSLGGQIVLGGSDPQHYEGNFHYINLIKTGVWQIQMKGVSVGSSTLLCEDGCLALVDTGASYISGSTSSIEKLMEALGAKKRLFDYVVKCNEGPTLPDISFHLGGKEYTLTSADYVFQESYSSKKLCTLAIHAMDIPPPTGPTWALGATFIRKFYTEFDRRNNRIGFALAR
Experimental: Cleavage of FITC-angiotensinogen by Renin produces two products: FITC-AAGCDRVYIHPFHL (FITC-angiotensin) and angiotensinogen protein. To initiate the cleavage reaction, 1 ul Renin (0.1 mg/ml) stock solution may be added to 100 ul FITC-angiotensinogen in 20 mM Tris-HCL, PH 8.5. The final concentration of FITC-angiotensingen may be about 1 uM. […] This confirms the specific cleavage of FITC-angiotensinogen by Renin.
An alternative strategy to label the full length angtensinogen is to delete 16 residues from the N-terminus of angtensinogen. This shorted angtensinogen has a Cys at its N-terminal end and is fused to sumo. Using the same protocol as described above, this fusion protein is expressed, purified and cleaved by Sumo protease to produce the N-terminal 16 residue deleted angtensinogen. Referring to FIG. 7, ligation of the N-terminal 16 residue deleted angtensinogen to the FITC-DRVYIHPFHLVIHNEST-thioester, a slightly different version of FITC-angiotensinogen is produced. […] Cleavage of this FITC-angiotensinogen by Renin may be measured by recording fluorescence polarization signal as a function of time, as shown in FIG. 8. […] This proves that the FITC-angiotensinogen may be used as a substrate for Renin activity assay by recording the fluorescence polarization and the assay may be used to identify its inhibitors.

Chain of ADAM 17 (Homo sapiens, UniProt P01375) (P01375 with tags, fused parts or gaps): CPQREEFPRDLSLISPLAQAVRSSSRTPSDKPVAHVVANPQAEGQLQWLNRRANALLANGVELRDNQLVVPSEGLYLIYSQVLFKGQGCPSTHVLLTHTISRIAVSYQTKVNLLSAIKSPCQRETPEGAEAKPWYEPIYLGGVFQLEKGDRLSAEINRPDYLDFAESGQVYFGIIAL
Chain of ADAM 17 (Homo sapiens, UniProt P78536) (P78536 215-824): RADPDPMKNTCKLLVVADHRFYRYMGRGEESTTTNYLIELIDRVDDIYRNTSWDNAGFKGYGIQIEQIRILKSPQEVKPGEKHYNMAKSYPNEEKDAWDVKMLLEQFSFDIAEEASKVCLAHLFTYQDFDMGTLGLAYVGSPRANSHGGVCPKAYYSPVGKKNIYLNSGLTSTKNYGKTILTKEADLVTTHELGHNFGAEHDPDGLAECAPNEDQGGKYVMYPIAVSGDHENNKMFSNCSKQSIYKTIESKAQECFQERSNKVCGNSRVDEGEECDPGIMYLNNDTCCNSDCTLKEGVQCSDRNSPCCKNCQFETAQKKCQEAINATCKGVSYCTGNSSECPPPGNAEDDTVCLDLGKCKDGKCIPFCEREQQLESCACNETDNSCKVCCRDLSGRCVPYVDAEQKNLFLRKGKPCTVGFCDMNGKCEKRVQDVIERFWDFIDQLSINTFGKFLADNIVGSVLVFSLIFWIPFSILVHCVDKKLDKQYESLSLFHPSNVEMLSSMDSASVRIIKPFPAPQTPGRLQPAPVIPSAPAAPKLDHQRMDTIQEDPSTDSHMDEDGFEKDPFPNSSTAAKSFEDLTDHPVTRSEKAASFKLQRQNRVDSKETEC
T1 sequence (P56817 46-501): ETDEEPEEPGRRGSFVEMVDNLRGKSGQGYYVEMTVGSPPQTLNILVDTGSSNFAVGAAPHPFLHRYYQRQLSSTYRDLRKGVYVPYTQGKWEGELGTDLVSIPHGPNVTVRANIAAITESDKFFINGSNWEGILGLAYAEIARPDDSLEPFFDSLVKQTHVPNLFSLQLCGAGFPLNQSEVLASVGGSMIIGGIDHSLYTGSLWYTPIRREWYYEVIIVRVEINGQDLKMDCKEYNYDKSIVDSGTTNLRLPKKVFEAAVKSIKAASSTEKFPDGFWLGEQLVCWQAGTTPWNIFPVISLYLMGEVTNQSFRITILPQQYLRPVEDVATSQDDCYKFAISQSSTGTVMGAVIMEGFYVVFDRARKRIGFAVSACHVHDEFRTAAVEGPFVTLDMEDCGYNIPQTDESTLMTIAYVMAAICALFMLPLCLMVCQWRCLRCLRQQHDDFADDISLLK

Compound: CNC(=O)[C@H](Cc1c[nH]c2ccccc12)NC(=O)[C@@H](CC(=O)NO)CC(C)C [N-[(2R)-2-(Hydroxamidocarbonylmethyl)-4-methylpentanoyl]-L-tryptophan methylamide]
- fluorescence polarization change during cleavage of FITC-[pro-TNF-α] by ADAM 17 (ADAM 17 [1]): little change

Compound: Cc1cc2occ(CN(C)CCN(C)Cc3cn(-c4cccc(C(F)(F)F)c4)c4ccccc34)c(=O)c2cc1C [TNF-α inhibitor, 6,7-Dimethyl-3-((methyl-(2-(methyl-(1-(3-trifluoromethyl-phenyl)-1H-indol-3-ylmethyl)-amino)-ethyl)-amino)-methyl)-chromen-4-one]
- cleavage rate of FITC-(pro-TNF-α) by ADAM 17 (ADAM 17 [2]; 200 uM compound pre-incubated with FITC-(pro-TNF-α) for 30 minutes): reduced
- reduction of the reaction rate (conversion of pro-TNF-α to TNF-α by Adam 17) (ADAM 17 [2]; inhibitor at about 200 μM, FIG. 13): about 40%
- cleavage activity of Adam 17 to the peptide substrate (ADAM 17 [3]): not affected

- fluorescence polarization during cleavage of APP365-699-[5-TAMRA] by BACE (BACE): remains unchanged
Compound: KTEEISEVN-Sta-VAEF

- fluorescence polarization change during cleavage of FITC-angiotensinogen by Renin (Renin; FITC-angiotensinogen made from N-terminal 16 residue deleted angiotensinogen, FIG. 8 Trace B): little change
- fluorescence polarization change during cleavage of FITC-angiotensinogen by Renin (Renin; full length FITC-angiotensinogen, FIG. 6 Trace B): little change
Compound: RRPFH-Sta-IHK
